Results: US20230086469A1, “AUTOANTIGENIC PEPTIDES (CALVICIFIV), PRESENTED BY TOLEROGENIC DENTRITIC CELLS, USEFUL FOR THE PERSONALIZED TREATMENT OF RHEUMATOID ARTHRITIS” (UNIVERSIDAD DE CHILE, priority 2019, published 2023)

Tests used:
Format in all cases: cell-based, human
[1] = system: autologous CD4+ T cells from patients with RA; assay: Co-culture of peptide-pulsed VD3-DCs with autologous CFSE-stained CD4+ T cells; settings: VD3-DCs pulsed with peptide in comparison to mDCs; 5 days co-culture; FIG. 4B
Excerpt: FIGS. 4A-4C. Modulation of antigen-specific CD4+ T cell responses by tDCs generated using different protocols and pulsed with autoantigenic peptides. Two different protocols were used for tDCs generation from peripheral blood monocytes of RA patients: 1) DCs treated with Bay 11-082 (Bay-DCs); and 2) DCs treated with vitamin D3, dexamethasone and LPS (VD3-DCs); mDCs were used as control. DCs were pulsed with previously selected peptides or mixtures of them, using a peptide derived from Aggrecan, as a positive control. Then, DCs were co-cultured with autologous CFSE-stained CD4+ T cells and, after 5 days, 8 the percentage of proliferating CD4+ T cells (CFSElo) expressing IFN-γ (FIG. 4A), IL-17 (FIG. 4B) or TNF-α (FIG. 4C), was evaluated by flow cytometry. The percentage of decrease in the expression of proinflammatory cytokines by CD4+ T cells co-cultured with tDCs in comparison to mDCs was calculated. […]
(§1) tDCs were then co-cultured with CFSE-stained CD4+ T cells and, after 5 days of culture, the percentage of proliferating CD4+T lymphocytes, expressing IFN-γ, IL-17 and TNF-α, was evaluated by flow cytometry. In each case, the percentage of decrease in the expression of proinflammatory cytokines by CD4+ T cells co-cultured with tDCs in comparison to mDCs was calculated.

[2] = system: autologous CD4+ T cells from patients with RA; assay: Co-culture of peptide-pulsed Bay-DCs with autologous CFSE-stained CD4+ T cells; settings: Bay-DCs pulsed with peptide in comparison to mDCs, 5 days co-culture; for expression of IFN-γ by CD4+ T lymphocytes: FIG. 4A; for decrease of IL-17 expression by CD4+ T lymphocytes: FIG. 4B
Excerpt: FIGS. 4A-4C. Modulation of antigen-specific CD4+ T cell responses by tDCs generated using different protocols and pulsed with autoantigenic peptides. Two different protocols were used for tDCs generation from peripheral blood monocytes of RA patients: 1) DCs treated with Bay 11-082 (Bay-DCs); and 2) DCs treated with vitamin D3, dexamethasone and LPS (VD3-DCs); mDCs were used as control. DCs were pulsed with previously selected peptides or mixtures of them, using a peptide derived from Aggrecan, as a positive control. Then, DCs were co-cultured with autologous CFSE-stained CD4+ T cells and, after 5 days, 8 the percentage of proliferating CD4+ T cells (CFSElo) expressing IFN-γ (FIG. 4A), IL-17 (FIG. 4B) or TNF-α (FIG. 4C), was evaluated by flow cytometry. The percentage of decrease in the expression of proinflammatory cytokines by CD4+ T cells co-cultured with tDCs in comparison to mDCs was calculated.
In order to evaluate the potential of autoantigenic peptides to load tolerogenic DCs generated from different protocols to modulate antigen-specific CD4+ T cell responses, co-culture assays of tDCs pulsed with autoantigenic peptides and autologous CD4+ T cells from patients with RA were performed. DCs were generated from monocytes according to the protocol described of example 2. To differentiate other tolerogenic dendritic cells types, DCs generated from monocytes were modulated with Bay-11-7982 an irreversible inhibitor of NF-κB (Bay-DCs), or modulated with Vitamin D3, dexamethasone and LPS (VD3-DCs). As control, mature DCs (mDCs) treated only with MPLA were used.
After this, the cells were pulsed with the autoantigenic peptides in the same way as an example 2, independently with the following autoantigenic peptides; 3 peptides derived from vimentin, such as Vimentin-1, Vimentin-1 citrullinated, Vimentin-2 citrullinated, or autoantigenic peptides derived from Fibrinogen, Calreticulin and Fibronectin, Aggrecan, as a positive control was used of the activation of the autologous CD4+ T cells, and un-pulsed DCs were used as a basal activation control. Besides mixtures were considered: Mix 1: Vimentin-1 and Vimentin-1 citrullinated; Mix 2: Vimentin-2 citrullinated and Calreticulin; Mix 3: Mix 1+Mix 2.
as §1

[3] = system: autologous CD4+ T cells from patients with RA; assay: Co-culture of peptide-pulsed MPLA-tDCs with autologous CFSE-stained CD4+ T cells; settings: MPLA-tDCs pulsed with peptide in comparison to mDCs, 5 days co-culture; for expression of IFN-γ by proliferating CD4+ T lymphocytes: FIG. 3A
Excerpt: FIGS. 3A-3C Modulation of antigen-specific CD4+ T cell responses by tolerogenic dendritic cells (tDCs) treated with dexamethasone and monophosphoryl lipid A (MPLA-tDCs) and pulsed with autoantigenic peptides. MPLA-tDCs and MPLA-matured DCs (mDCs), as activation control, were generated from peripheral blood monocytes of RA patients, and pulsed with previously selected peptides or mixtures of them, using a peptide derived from Aggrecan, previously described in literature, as a control peptide. Subsequently, DCs were co-cultured with autologous CFSE-stained CD4+ T cells and, after 5 days, the percentage of proliferating CD4+ T cells (CFSElo) expressing IFN-γ (FIG. 3A), L-17 (FIG. 3B) or TNF-α (FIG. 3C) was evaluated by flow cytometry. […] To compare the expression of cytokines induced by each type of DCs, a T test was performed (*p<0.05).
In order to evaluate the ability of tDCs to modulate antigen-specific CD4+ T cell responses, co-culture assays of tDCs pulsed with autoantigenic peptides and autologous CD4+ T cells from patients with RA were performed. DCs were generated from monocytes isolated from peripheral blood of patients with RA, cultured at a concentration of 2-3×10^6 cells/ml in serum-free AIM-V medium in the presence of 500 U/mL of recombinant human interleukin-4 (rhIL-4) and recombinant human […] colony stimulating factor (rhGM-CSF), for 5 days, at 37° C. and 5% CO2. […]
The effect of autoantigenic peptides to modulate effector CD4+ T cell responses of patients with RA, when are presented by tDCs generated using the protocol described in this application. […] DCs were then co-cultured with CFSE-stained CD4+ T cells and, after 5 days of culture, the percentage of proliferating CD4+T lymphocytes, expressing IFN-γ, IL-17 and TNF-α, was evaluated by flow cytometry. In each case, the percentage of decrease in the expression of proinflammatory cytokines by CD4+ T cells co-cultured with tDCs in comparison to mDCs was calculated.

Substance | decrease of IL-17 expression by CD4+ T lymphocytes [1] | expression of IFN-γ by CD4+ T lymphocytes [2] | decrease of IL-17 expression by CD4+ T lymphocytes [2] | expression of IFN-γ by proliferating CD4+ T lymphocytes [3] | expression of TNF-α by proliferating CD4+ T lymphocytes ([3]; FIG. 3C)
Calreticulin | high percentage of decrease | significantly reduced | high percentage of decrease | significantly reduced | 
Fibrinogen | high percentage of decrease |  | high percentage of decrease |  | 
Fibronectin |  | significantly reduced |  | significantly reduced | significantly decrease
